From US10557853B2 (priority 2012, dated 2020)
Values joined by “and” are separate entries in the source; they are usually repeats but may differ in a detail not shown here. Equal entries are not always repeated. “Also recorded” adds a separate entry of the source.

Legend:
[1] = molecular target: T1, GST-M1-1 (Homo sapiens, UniProt P09488); assay: Displacement (inhibitor screening) assay with sensor 14-GST-M1-1 complex; format: binding; settings: 50 μM drug, sensor 14 90 nM, GST M1-1 90 nM
T1 construct: purchased Oxford Biomedical Research (a second source is given: Israel Structural Proteomics Center, recombinant)
T1 sequence (P09488 2-218 limits assumed): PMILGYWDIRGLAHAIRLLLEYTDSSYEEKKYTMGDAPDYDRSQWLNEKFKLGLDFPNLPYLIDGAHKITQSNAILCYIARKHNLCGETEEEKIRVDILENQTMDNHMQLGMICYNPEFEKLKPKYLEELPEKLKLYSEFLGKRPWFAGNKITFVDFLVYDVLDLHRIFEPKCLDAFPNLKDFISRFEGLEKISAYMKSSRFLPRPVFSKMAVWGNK
Protocol: A possible advantage of such systems, however, is that they abrogate the need for using labelled substrates and following the reaction kinetics. Such sensors could, therefore, complement other label-free enzyme assays that rely on indicator displacement mechanisms.
The sensor 14-GST-M1-1 complex was treated with a random library of known drugs.

[2] = tested on: MDA-MB-231 cancer cells, overexpressing GST-P1-1; assay: Live cell fluorescence imaging, MDA-MB-231; format: cell-based; settings: 2 μM, 15 minutes at 37° C.
Protocol: GST-P1-1 is a cytosolic protein, whereas DNA is located in the nucleouse.
MDA-MB-231 cells were maintained in RPMI supplemented with 10% FBS, L-glutamine, and antibiotics. […] Cell images were analyzed using imageJ.

[3] = tested on: dsDNA; assay: Fluorescence response to double-stranded DNA; format: binding; settings: for fluorescence response to addition of dsDNA (FIG. 21e): 100 nM sensor or TO, 400 nM dsDNA, phosphate buffer 5 mM pH 6.5
Protocol: Different 10 derivatives (Table 3) were incubated with increasing concentrations of double-stranded DNA and compared their fluorescence emission prior to and after their incubation in PBS buffer, pH=6.5 (FIG. 9).

[4] = molecular target: T2, GST-P1-1 (Homo sapiens, UniProt P09211); assay: GST kinetic measurements and inhibitory constants (CDNB/GSH), GST-P1-1; format: biochemical; settings: Morrison fit; GSH 3 mM, CDNB 1.5 mM; read-out: approximate inhibition constant Ki, GST-P1-1
T2 construct: purchased Oxford Biomedical Research (a second source is given: Israel Structural Proteomics Center, recombinant)
T2 sequence (P09211 2-210 limits assumed): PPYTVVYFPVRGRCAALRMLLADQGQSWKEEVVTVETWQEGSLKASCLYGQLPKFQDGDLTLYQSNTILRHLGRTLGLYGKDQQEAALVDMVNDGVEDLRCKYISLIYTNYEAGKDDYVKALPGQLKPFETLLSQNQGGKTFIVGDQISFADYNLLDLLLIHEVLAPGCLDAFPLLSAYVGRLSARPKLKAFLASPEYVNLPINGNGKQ
Protocol: (§1) (FIGS. 16- and 19). The concentrations of different GSTs, GSH, and CDNB were 20 nM, 350 μM, and 700 μM, respectively. The GST activity was measured spectrophotometrically using chloro-2,4-dinitrobenzene (CDNB) and GSH as substrates, in phosphate buffer (10 mM, pH 6.5). In a typical experiment, GST and sensors 14 or 140 were incubated for 10 min at 25° C. and then GSH and CDNB were subsequently added. The formation of S-(2,4-dinitrophenyl)-glutathione was monitored using the microplate reader at λ=340 nm. […] The concentrations of GSH and CDNB were 3 mM and 1.5 mM, respectively. The Km values were determined using 20 nM of each GST isoform, 3 mM GSH, and variable CDNB concentrations (50 μM-2 mM). Data were fit to the Michaelis-Menten equation using Sigmaplot version 12.0 statistical software (Systat) to obtain the Km values.
(§2) The data were analyzed using Graphpad Prism 6.0 and fitted to the Morrison equation for tight binding substrates (FIG. 18 and FIG. 19(b,c)).
(§3) [formula] where Y is the enzyme activity, X is different concentrations of inhibitor (compound 14 or 140), E is the enzyme concentration, S is the concentration of substrate, Km is the Michaelis-Menten constant determined in an experiment without inhibitor, and V0 is the initial velocity.

[5] = molecular target: T3, GST-A2-2 (Homo sapiens, UniProt P09210); assay: GST sensing: fluorescence response to GST-A2-2; format: binding; settings: 100 nM sensor, 90 nM isozyme
T3 construct: purchased Oxford Biomedical Research (a second source is given: Israel Structural Proteomics Center, recombinant)
T3 sequence (P09210 2-222 limits assumed): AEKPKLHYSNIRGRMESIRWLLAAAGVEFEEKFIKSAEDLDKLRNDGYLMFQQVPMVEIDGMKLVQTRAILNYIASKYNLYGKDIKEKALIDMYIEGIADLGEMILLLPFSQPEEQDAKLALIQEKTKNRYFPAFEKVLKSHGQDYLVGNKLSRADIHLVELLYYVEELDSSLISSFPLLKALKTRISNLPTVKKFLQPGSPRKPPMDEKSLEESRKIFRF
Protocol: (§4) The most efficient TOPI sensors were identified (FIG. 12) by measuring the fluorescence of the six sensors (100 nM) in the absence and presence of their targets (90 nM) (FIG. 13).
(§5) Based on the obtained binding constants (FIG. 15), a concentration of 100 nM sensor was chosen for GST sensing. This concentration should ensure strong binding and a high S/N ratio.

[6] = molecular target: T4, GST-A1-1 (Homo sapiens, UniProt P08263); assay: GST sensing: fluorescence response to GST-A1-1; format: binding; settings: 100 nM sensor, 90 nM isozyme
T4 construct: purchased Oxford Biomedical Research (a second source is given: Israel Structural Proteomics Center, recombinant)
T4 sequence (P08263 2-222 limits assumed): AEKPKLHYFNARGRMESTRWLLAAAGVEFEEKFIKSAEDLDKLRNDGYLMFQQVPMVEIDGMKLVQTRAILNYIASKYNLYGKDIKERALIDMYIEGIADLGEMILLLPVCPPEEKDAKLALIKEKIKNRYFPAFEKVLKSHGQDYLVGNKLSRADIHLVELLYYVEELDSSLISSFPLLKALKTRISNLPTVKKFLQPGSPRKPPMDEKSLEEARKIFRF
Protocol: as §4, §5

[7] = molecular target: T2, GST-P1-1; assay: GST sensing: fluorescence response to GST-P1-1; format: binding; settings: 100 nM sensor
Protocol: as §4, §5

[8] = molecular target: T2, GST-P1-1; assay: Fluorescence binding study, dissociation constant with GST-P1-1; settings: fluorescence titration, phosphate buffer 5 mM pH 6.5; read-out: approximate dissociation constant Kd, GST-P1-1
Protocol: The approximate dissociation constants were determined for GST-M1-1 and GST-P1-1. For these experiments, the concentration of the sensor was chosen according to the enzymatic assays (Ki values, FIG. 18, 19). It was chosen to be lower than the Ki (expected Kd), but such that would also generate a detectable and reproducible emission signal in the plate reader. […] The data were analyzed using Graphpad Prism 6.0 and fitted to the equation: Y=Bmax·X/(kd+X) where Bmax is the maximum binding and X is the concentration of protein.

[9] = molecular target: T3, GST-A2-2; assay: GST kinetic measurements and inhibitory constants (CDNB/GSH), GST-A2-2; format: biochemical; settings: Morrison fit; GSH 3 mM, CDNB 1.5 mM; read-out: approximate inhibition constant Ki, GST-A2-2
Protocol: as §1, §2, §3

[10] = molecular target: T1, GST-M1-1; assay: GST sensing: fluorescence response to GST-M1-1; format: binding; settings: 100 nM sensor
Protocol: as §4, §5
Two different mixtures of GST isoforms were prepared: one that contained all the GST isoforms (20 nM of each GST, in total 160 nM) (A1-1k2-2, P1-1, M1-1, T1-1, O1-1, Z1-1, and K1-1) and the second mixture contained all the GST isoforms except GST-M1-1.

[11] = molecular target: avidin (Av) (Gallus gallus, UniProt P02701); assay: Av sensing: fluorescence response of TOPI sensors; format: binding; settings: 100 nM sensor, 90 nM Av; for enhancement in fluorescence emission upon addition of Av: phosphate buffer 15 mM pH 7.3
Chain of avidin (Av) (P02701 25-152): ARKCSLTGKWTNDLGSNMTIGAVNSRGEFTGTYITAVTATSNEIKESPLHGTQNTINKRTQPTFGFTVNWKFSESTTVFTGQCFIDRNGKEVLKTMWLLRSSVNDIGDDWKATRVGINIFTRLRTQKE
Protocol: as §4
(§6) Fluorescence values were recorded immediately after addition of the proteins (FIGS. 12d and 13b).

[12] = molecular target: streptavidin (SAv) (Streptomyces avidinii, UniProt P22629); assay: SAv sensing: fluorescence response of TOPI sensors; format: binding; settings: 100 nM sensor, 90 nM SAv
Chain of streptavidin (SAv) (P22629 25-183): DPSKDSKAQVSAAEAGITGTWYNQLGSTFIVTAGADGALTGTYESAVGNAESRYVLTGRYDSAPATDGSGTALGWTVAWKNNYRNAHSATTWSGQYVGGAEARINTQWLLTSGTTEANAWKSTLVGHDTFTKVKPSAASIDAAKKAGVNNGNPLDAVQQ
Protocol: as §4, §6

[13] = molecular target: T5, AChE (Tetronarce californica, UniProt P04058); assay: AChE sensing: fluorescence response of TOPI sensors; format: binding; settings: 100 nM sensor, 90 nM AChE
T5 construct: gift from Prof; Israel Silman Lab (Weizmann Institute of Science)
T5 sequence (P04058 22-564): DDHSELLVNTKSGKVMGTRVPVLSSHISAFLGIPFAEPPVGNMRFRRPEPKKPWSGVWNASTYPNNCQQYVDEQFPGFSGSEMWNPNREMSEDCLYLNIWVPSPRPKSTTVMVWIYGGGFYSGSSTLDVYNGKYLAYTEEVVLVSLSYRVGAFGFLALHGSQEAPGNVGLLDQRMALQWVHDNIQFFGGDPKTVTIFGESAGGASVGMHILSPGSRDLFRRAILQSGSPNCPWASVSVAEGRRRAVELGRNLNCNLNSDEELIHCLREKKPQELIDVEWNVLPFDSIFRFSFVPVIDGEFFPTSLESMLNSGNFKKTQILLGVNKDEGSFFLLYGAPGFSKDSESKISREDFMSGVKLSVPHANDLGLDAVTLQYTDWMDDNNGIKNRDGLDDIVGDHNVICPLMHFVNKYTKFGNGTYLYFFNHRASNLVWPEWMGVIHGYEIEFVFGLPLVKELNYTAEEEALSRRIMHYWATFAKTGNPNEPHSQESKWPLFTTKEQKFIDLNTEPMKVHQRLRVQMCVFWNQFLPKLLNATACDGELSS
Protocol: Fluorescence values were recorded immediately after addition of the proteins (FIGS. 12a and 13a).

[14] = molecular target: T5, AChE; assay: AChE kinetic measurements (Ellman method); format: biochemical; settings: for inhibition of AChE activity: 8 pM AChE, sensor 36 50 nM, sensor 37 2 μM
Protocol: The AChE activity was measured spectrophotometrically using 5,5′-dithiobis(2-nitrobenzoic acid) (DTNB) and acetylthiocholine iodide as substrates, in phosphate buffer (50 mM, pH 8.0). […] The final concentrations of AChE, DTNB, and acetylthiocholine iodide were 8 pM, 0.4 mM, and 0.4 mM, respectively.

[15] = tested on: healthy MCF-10A cells; assay: Live cell fluorescence imaging, MCF-10A; format: cell-based; settings: 2 μM

Compound: C=C(CC)C(=O)c1ccc(OCC(=O)O)c(Cl)c1Cl [EA, Ethacrynic acid]
- displacement of sensor 14 from GST-M1-1 (reduction in emission) [1]: selective identification

Compound: CN1C(=Cc2cc[n+](C)c3ccccc23)Sc2ccccc21 [TO, Thiazole Orange, reference compound]
- localization of fluorescence in live MDA-MB-231 cells [2]: strong green emission mainly from the nucleus
- fluorescence response to addition of dsDNA (FIG. 21e) [3]: strong fluorescence signal

Compound: CCCCCCSC[C@H](NC(=O)CC[C@H](N)C(=O)O)C(=O)NCC(=O)O [s-hexyl GSH]
- displacement of sensor 14 from GST-M1-1 (reduction in emission) [1]: selective identification

Compound: C=C(CC)C(=O)c1ccc(OCC(=O)NCCCn2cc(CNC(=O)OCCCN3C=C/C(=C\c4sc5ccccc5[n+]4CCCOC(=O)NCc4cn(CCCNC(=O)COc5ccc(C(=O)C(=C)CC)c(Cl)c5Cl)nn4)c4ccccc43)nn2)c(Cl)c1Cl [sensor 14]
- Ki [4]: 49 nM
- fluorescence detection of GST-A2-2 [5]: could not be detected
- fluorescence detection of GST-A1-1 [6]: could not be detected
- time course of emission in the presence of GST-P1-1 ([7]; 90 nM GST P1-1, phosphate buffer 5 mM pH 6.5): slowly increased over a period of 2 hours
- Kd [8]: 38 nM
- Ki [9]: 20 nM
- fluorescence response to addition of dsDNA (FIG. 21e) [3]: negligible fluorescence responses; also recorded: did not exhibit any change in its fluorescence at 540 nm
- change in fluorescence upon addition of dsDNA (Example 3) ([3]; 500 nM TO derivative, 100-900 nM dsDNA, PBS pH 6.5, emission 530 nm): did not exhibit any change in its fluorescence at 530 nm
- fluorescence enhancement in the presence of GST-M1-1 ([10]; 90 nM GST-M1-1, phosphate buffer 5 mM pH 6.5, recorded immediately): 55 fold
- detection of GST-M1-1 in a mixture of GST isozymes ([10]; GST-M1-1 20 nM plus seven additional GSTs 20 nM each): selective detection of GST-M1-1 in a mixture of isoforms

Compound: O=C(CCCCC1SCC2NC(=O)NC21)NCCOCCOCCNC(=O)CCN1C=C/C(=C\c2sc3ccccc3[n+]2CCC(=O)NCCOCCOCCNC(=O)CCCCC2SCC3NC(=O)NC32)c2ccccc21.[I-] (centres unmarked) [sensor 34]
- fluorescence response to Av [11]: strongly
- enhancement in fluorescence emission upon addition of Av [11]: 16 fold
- fluorescence response to SAv [12]: weakly; also recorded: hardly detected
- fluorescence response to addition of dsDNA (FIG. 21e) [3]: negligible fluorescence responses

Compound: O=C(CCCCC1SCC2NC(=O)NC21)NCCNC(=O)CCN1C=C/C(=C\c2sc3ccccc3[n+]2CCC(=O)NCCNC(=O)CCCCC2SCC3NC(=O)NC32)c2ccccc21.[I-] (centres unmarked) [sensor 35]
- fluorescence response to Av [11]: strongly
- enhancement in fluorescence emission upon addition of Av [11]: 7 fold
- fluorescence response to SAv [12]: weakly; also recorded: hardly detected

Compound: O=C(CCN1C=C/C(=C\c2sc3ccccc3[n+]2CCC(=O)NCCCCCCNc2c3c(nc4ccccc24)CCCC3)c2ccccc21)NCCCCCCNc1c2c(nc3ccccc13)CCCC2.[I-] [sensor 36]
- detection of AChE [13]: could detect AChE
- enhancement in fluorescence emission upon addition of AChE ([13]; phosphate buffer 20 mM pH 8): 22 fold
- inhibition of AChE activity [14]: strong bivalent inhibitor; also recorded: full inhibition at low nanomolar concentration
- Ki ([14]; competitive inhibition fit, acetylthiocholine iodide substrate, read-out: approximate inhibition constant Ki, AChE): 0.32 nM and 0.31 nM

Compound: O=C(CCN1C=C/C(=C\c2sc3ccccc3[n+]2CCC(=O)NCCNc2c3c(nc4ccccc24)CCCC3)c2ccccc21)NCCNc1c2c(nc3ccccc13)CCCC2.[I-] [sensor 37]
- detection of AChE [13]: could detect AChE
- inhibition of AChE activity [14]: inhibited the AChE, activity only at 2 μM

Compound: C=C(CC)C(=O)c1ccc(OCC(=O)NCCNC(=O)CCN2C=C/C(=C\c3sc4ccccc4[n+]3CCC(=O)NCCNC(=O)COc3ccc(C(=O)C(=C)CC)c(Cl)c3Cl)c3ccccc32)c(Cl)c1Cl [sensor 140, (E)-3-(3-((2-(2-(2,3-dichloro-4-(2-methylenebutanoyl)phenoxy)acetamido)ethyl)amino)-3-oxopropyl)-2-((1-(3-((2-(2-(2,3-dichloro-4-(2-methylenebutanoyl)phenoxy)acetamido)ethyl)amino)-3-oxopropyl)quinolin-4(1H)-ylidene)methyl)benzoidithiazol-3-ium iodide]
- localization of fluorescence in live MDA-MB-231 cells [2]: distributed within the cell
- emission signal in MCF-10A cells [15]: much weaker emission signal
- turn-on fluorescence signal in the presence of GST-P1-1 ([7]; 90 nM GST-P1-1, after 30 min incubation): 33 fold
- Kd [8]: 29 nM
- fluorescence response to addition of dsDNA (FIG. 21e) [3]: negligible fluorescence responses
